Test results from PMC10763561, “Red-light modulated ortho-chloro azobenzene photoswitch for peptide stapling via aromatic substitution” (RSC Chemical Biology, 2023).
pKd: −log10 of the molar value. Read-outs that look alike come from different tables or passages of the source. Each block holds one molecule with its values, some of them ahead of it. Starred links: 1 amine or outer side, 2 acyl side, 3 side chain; linkers in the order of their positions; H or OH if unused. Positions of bridges follow the written chain, without caps; N, C: chain ends. Residues, ends and D or L forms follow the SMILES beside them. X1 = Clc1cc([*:1])cc(Cl)c1N=Nc1c(Cl)cc([*:2])cc1Cl

Experiments:
[1] = Serum stability study monitored by HPLC; type: in vitro ADME, human; details: 37 °C, HPLC 220 nm
Protocol: The stability of SP1 in human serum was investigated and compared to the stability of its linear precursor P1 and the parent PMI (Fig. 6). The stability of the peptides at 37 °C in human serum was monitored throughout 5 days by HPLC.
Fig. 6 Stability of the precursor peptide P1, the parent PMI and SP1 in human serum at 37 °C, over 5 days, monitored by HPLC at 220 nm. […]
6.2 Serum Stability Studies
P1 and SP1 (10 μL, 10 mM stock in DMSO) were incubated with PBS (1x, 500 μL), human serum (50 μL) and caffeine (10 μL of a 11.25 mg/mL solution in MQ water) at 37 °C for 5 days. At specific intervals, aliquots (25 μL) of the reaction mixture were taken, flash frozen in liquid nitrogen and stored at -20 °C prior to analysis on the same day. Upon unfreezing, the samples were quenched with 25 μL of 96% ethanol and 25 μL of DMSO. The samples were spun at 13400 g for 10 minutes and the supernatant analysed by HPLC analysis, with a 5-95% B gradient (A: 0.05% (v/v) TFA in H2O, B: 0.05% (v/v) TFA in MeCN) over 18 minutes at 220 nm.
Caffeine was used as an internal standard to enable quantification of degradation over time. The experiment was performed in duplicates (Table S2-4). […]

[2] = molecular target: T1, p53-interacting domain of human MDM2 (MDM2 6-125) (Homo sapiens, UniProt Q00987); assay: MDM2 direct fluorescence polarisation binding assay; details: direct FP, 15 nM tracer, MDM2 titrated from 9.75 uM, 18-point, PBS 0.05% Tween-20 3% DMSO, 1:1 binding model
T1 construct: human MDM2 (MDM26–125)
Protocol: To assess the binding affinity of the precursor peptide P1 and the photoswitchable stapled peptide SP1 for MDM2, a competitive fluorescence polarisation (FP) assay was carried out using the p53-interacting domain of human MDM2 (MDM26–125). […] The inhibitory constants (Ki) for all peptides were subsequently determined. […] This can be attributed the loss in α-helicity observed for P1, in comparison to that of PMI,[34] measured by CD analysis. To induce in situ isomerisation, SP1 was irradiated with red or purple light in FP buffer prior to commencing the experiment. […] The Ki values for each isomer were determined from their corresponding inflection points in the fitted sigmoidal curve. […]
The half-life of the metastable cis SP1 form in FP assay buffer was determined by analytical HPLC analysis (Figure S3). […]
P1 and SP1 (10 μL, 10 mM stock in DMSO) were incubated with PBS (1x, 500 μL), human serum (50 μL) and caffeine (10 μL of a 11.25 mg/mL solution in MQ water) at 37 °C for 5 days. […] The samples were spun at 13400 g for 10 minutes and the supernatant analysed by HPLC analysis, with a 5-95% B gradient (A: 0.05% (v/v) TFA in H2O, B: 0.05% (v/v) TFA in MeCN) over 18 minutes at 220 nm.
Caffeine was used as an internal standard to enable quantification of degradation over time. […]
7 Fluorescence Polarisation (FP) Assay […]
7.1 MDM2 Fluorescence Polarisation Binding Assay […]

[3] = human, human serum diluted in PBS, replicate 1, human serum 50 uL in PBS 500 uL, caffeine internal standard, read-out: Normalised Linker % (peptide remaining)
[4] = human, human serum diluted in PBS, replicate 2, human serum 50 uL in PBS 500 uL, caffeine internal standard, read-out: Normalised Linker % (peptide remaining)
[5] = human, human serum diluted in PBS, 24 h, replicate 2, human serum 50 uL in PBS 500 uL, caffeine internal standard, read-out: Normalised Linker % (peptide remaining)

T1 sequence (Q00987 6-125 limits assumed): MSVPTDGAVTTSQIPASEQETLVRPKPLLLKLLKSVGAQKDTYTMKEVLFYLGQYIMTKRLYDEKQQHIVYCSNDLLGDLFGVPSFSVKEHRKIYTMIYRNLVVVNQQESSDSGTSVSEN

Normalised Linker % (peptide remaining) ([1]; 1 h, replicate 2, without the addition of TCEP, human serum 50 uL in PBS 500 uL, caffeine internal standard): 0.000% | remaining at 0.5 h, 175 µM ([1]; human serum diluted in PBS, 0.5 h, replicate 1, without the addition of TCEP, human serum 50 uL in PBS 500 uL, caffeine internal standard, read-out: Normalised Linker % (peptide remaining)): 12.8% | remaining at 1 h, 175 µM ([1]; human serum diluted in PBS, 1 h, replicate 1, without the addition of TCEP, human serum 50 uL in PBS 500 uL, caffeine internal standard, read-out: Normalised Linker % (peptide remaining)): 0%
Molecule: CC(=O)N[C@H](C(=O)N[C@@H](CO)C(=O)N[C@@H](Cc1ccccc1)C(=O)N[C@@H](C)C(=O)N[C@@H](CS)C(=O)N[C@@H](Cc1ccc(O)cc1)C(=O)N[C@@H](Cc1c[nH]c2ccccc12)C(=O)N[C@@H](CC(N)=O)C(=O)NCC(=O)N[C@@H](CC(C)C)C(=O)N[C@@H](CO)C(=O)N[C@@H](CS)C(N)=O)[C@@H](C)O [Peptide P1] (Ac-TSFACYWNGLSC-NH2)

Normalised Linker % (peptide remaining) ([1]; 24 h, replicate 1, human serum 50 uL in PBS 500 uL, caffeine internal standard): 0.000% | remaining at 1 h, 175 µM ([1]; human, human serum diluted in PBS, 1 h, replicate 1, human serum 50 uL in PBS 500 uL, caffeine internal standard, read-out: Normalised Linker % (peptide remaining)): 87.2% | remaining at 1 h, 175 µM ([1]; human, human serum diluted in PBS, 1 h, replicate 2, human serum 50 uL in PBS 500 uL, caffeine internal standard, read-out: Normalised Linker % (peptide remaining)): 97.2% | remaining at 3 h, 175 µM [1, 3]: 72.8% | remaining at 3 h, 175 µM [1, 4]: 76.2% | remaining at 6 h, 175 µM [1, 3]: 47.4% | remaining at 6 h, 175 µM [1, 4]: 32.7% | remaining at 9 h, 175 µM [1, 3]: 23.2% | remaining at 9 h, 175 µM [1, 4]: 11.3% | remaining at 24 h, 175 µM [1, 5]: 0%
Molecule: Ac-TSFAEYWNNLSP-NH2 [PMI, reference compound]

pKd [2]: 8.12
Molecule: CSCC[C@H](NC(=O)[C@H](Cc1ccccc1)NC(=O)[C@H](CCCNC(=N)N)NC(=O)c1ccc2c(c1)C(=O)OC21c2ccc(N(C)C)cc2Oc2cc(N(C)C)ccc21)C(=O)N[C@@H](CC(=O)O)C(=O)N[C@@H](Cc1ccc(O)cc1)C(=O)N[C@@H](Cc1c[nH]c2ccccc12)C(=O)N[C@@H](CCC(=O)O)C(=O)NCC(=O)N[C@@H](CC(C)C)C(N)=O [FP tracer peptide, TAMRA-RFMDYWEGL-NH2]

stability in human serum compared with P1 and PMI ([1]; human serum, 5 days): markedly improved stability | remaining at 2 h, 175 µM [1, 3]: 88.6% | remaining at 2 h, 175 µM [1, 4]: 89% | remaining at 24 h, 175 µM ([1]; human, human serum diluted in PBS, 24 h, replicate 1, human serum 50 uL in PBS 500 uL, caffeine internal standard, read-out: Normalised Linker % (peptide remaining)): 82.9% | remaining at 24 h, 175 µM [1, 5]: 72.4% | remaining at 72 h, 175 µM [1, 3]: 79.2% | remaining at 72 h, 175 µM [1, 4]: 53.6% | remaining at 120 h, 175 µM [1, 3]: 82.4% | remaining at 120 h, 175 µM [1, 4]: 48%
Molecule: CC(=O)N[C@H](C(=O)N[C@@H](CO)C(=O)N[C@@H](Cc1ccccc1)C(=O)N[C@@H](C)C(=O)N[C@H]1CSc2cc(Cl)c(c(Cl)c2)N=Nc2c(Cl)cc(cc2Cl)SC[C@@H](C(N)=O)NC(=O)[C@H](CO)NC(=O)[C@H](CC(C)C)NC(=O)CNC(=O)[C@H](CC(N)=O)NC(=O)[C@H](Cc2c[nH]c3ccccc23)NC(=O)[C@H](Cc2ccc(O)cc2)NC1=O)[C@@H](C)O [SP1] (Ac-TSFACYWNGLSC-NH2; linker 5-12 via X1)
